How the values were obtained:
Test in all cases: relative viability (nuclei count vs DMSO), 5 days (fraction); higher = more cells survive
NCI-H441 = system: NCI-H441
Summary of the method: (§1)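 For relative viability, nuclei counts in treated wells were divided by those in vehicle wells. Lung cancer cell lines had been pin-tool dosed in 1536-well plates the day after seeding and cultured for 5 days, then fixed and stained in one step (final 0.05% Triton X-100, 1% formaldehyde, 1 ug/ml Hoechst) and imaged at 4×. Doses were one drug alone or a fixed anchor-drug dose plus five library-drug doses (not always all listed) in √10 steps, and values are duplicate-plate medians.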

NCI-H1792 = system: NCI-H1792
Summary of the method: as §1

ABC-1 = system: ABC-1
Summary of the method: as §1

NCI-H23 = system: NCI-H23
Summary of the method: as §1

LOU-NH91 = system: LOU-NH91
Summary of the method: as §1

RERF-LC-KJ = system: RERF-LC-KJ
Summary of the method: as §1

NCI-H322M = system: NCI-H322M
Summary of the method: as §1

NCI-H2085 = system: NCI-H2085
Summary of the method: as §1

NCI-H1355 = system: NCI-H1355
Summary of the method: as §1

NCI-H1755 = system: NCI-H1755
Summary of the method: as §1

NCI-H2023 = system: NCI-H2023
Summary of the method: as §1

NCI-H2405 = system: NCI-H2405
Summary of the method: as §1

NCI-H2170 = system: NCI-H2170
Summary of the method: as §1

HOP-62 = system: HOP-62
Summary of the method: as §1

NCI-H2009 = system: NCI-H2009
Summary of the method: as §1

ChaGo-K-1 = system: ChaGo-K-1
Summary of the method: as §1

SK-MES-1 = system: SK-MES-1
Summary of the method: as §1

LCLC-97TM1 = system: LCLC-97TM1
Summary of the method: as §1

NCI-H727 = system: NCI-H727
Summary of the method: as §1

HCC-78 = system: HCC-78
Summary of the method: as §1

NCI-H650 = system: NCI-H650
Summary of the method: as §1

NCI-H1437 = system: NCI-H1437
Summary of the method: as §1

UMC-11 = system: UMC-11
Summary of the method: as §1

Cc1cnc(-c2cnc(NCCNc3ccc(C#N)cn3)nc2-c2ccc(Cl)cc2Cl)[nH]1 + COc1cccc2cc(-c3nc([C@H]4CC[C@H](C(=O)O)CC4)n4ncnc(N)c34)[nH]c12 [OSI-027] (partner 0.5 µM)
relative viability (NCI-H441; first compound 0.08 µM): 0.739
relative viability (NCI-H441; first compound 0.253 µM): 0.664
relative viability (NCI-H441; first compound 0.8 µM): 0.453
relative viability (NCI-H441; first compound 2.53 µM): 0.459
relative viability (NCI-H1792; first compound 0.08 µM): 0.866
relative viability (NCI-H1792; first compound 0.253 µM): 0.715
relative viability (NCI-H1792; first compound 0.8 µM): 0.618
relative viability (NCI-H1792; first compound 2.53 µM): 0.666
relative viability (ABC-1; first compound 0.08 µM): 0.751
relative viability (ABC-1; first compound 0.253 µM): 0.411
relative viability (ABC-1; first compound 0.8 µM): 0.553
relative viability (ABC-1; first compound 2.53 µM): 0.649
relative viability (NCI-H23; first compound 0.08 µM): 0.592
relative viability (NCI-H23; first compound 0.253 µM): 0.539
relative viability (NCI-H23; first compound 0.8 µM): 0.58
relative viability (NCI-H23; first compound 2.53 µM): 0.678
relative viability (LOU-NH91; first compound 0.08 µM): 0.732
relative viability (LOU-NH91; first compound 0.253 µM): 0.709
relative viability (LOU-NH91; first compound 0.8 µM): 0.751
relative viability (LOU-NH91; first compound 2.53 µM): 0.673
relative viability (RERF-LC-KJ; first compound 0.08 µM): 0.672
relative viability (RERF-LC-KJ; first compound 0.253 µM): 0.591
relative viability (RERF-LC-KJ; first compound 0.8 µM): 0.454
relative viability (RERF-LC-KJ; first compound 2.53 µM): 0.697
relative viability (NCI-H322M; first compound 0.08 µM): 0.641
relative viability (NCI-H322M; first compound 0.253 µM): 0.658
relative viability (NCI-H322M; first compound 0.8 µM): 0.45
relative viability (NCI-H322M; first compound 2.53 µM): 1.3
relative viability (NCI-H2085; first compound 0.08 µM): 0.812
relative viability (NCI-H2085; first compound 0.253 µM): 0.786
relative viability (NCI-H2085; first compound 0.8 µM): 0.677
relative viability (NCI-H2085; first compound 2.53 µM): 0.756
relative viability (NCI-H1355; first compound 0.08 µM): 0.404
relative viability (NCI-H1355; first compound 0.253 µM): 0.434
relative viability (NCI-H1355; first compound 0.8 µM): 0.395
relative viability (NCI-H1355; first compound 2.53 µM): 0.439
relative viability (NCI-H1755; first compound 0.08 µM): 0.81
relative viability (NCI-H1755; first compound 0.253 µM): 0.737
relative viability (NCI-H1755; first compound 0.8 µM): 0.726
relative viability (NCI-H1755; first compound 2.53 µM): 0.756
relative viability (NCI-H2023; first compound 0.08 µM): 0.565
relative viability (NCI-H2023; first compound 0.253 µM): 0.395
relative viability (NCI-H2023; first compound 0.8 µM): 0.431
relative viability (NCI-H2023; first compound 2.53 µM): 0.715
relative viability (NCI-H2405; first compound 0.08 µM): 0.655
relative viability (NCI-H2405; first compound 0.253 µM): 0.654
relative viability (NCI-H2405; first compound 0.8 µM): 0.654
relative viability (NCI-H2405; first compound 2.53 µM): 0.615
relative viability (NCI-H2170; first compound 0.08 µM): 0.732
relative viability (NCI-H2170; first compound 0.253 µM): 0.554
relative viability (NCI-H2170; first compound 0.8 µM): 0.705
relative viability (NCI-H2170; first compound 2.53 µM): 0.609
relative viability (HOP-62; first compound 0.08 µM): 0.914
relative viability (HOP-62; first compound 0.253 µM): 0.813
relative viability (HOP-62; first compound 0.8 µM): 0.972
relative viability (HOP-62; first compound 2.53 µM): 0.795
relative viability (NCI-H2009; first compound 0.08 µM): 0.729
relative viability (NCI-H2009; first compound 0.253 µM): 0.597
relative viability (NCI-H2009; first compound 0.8 µM): 0.609
relative viability (NCI-H2009; first compound 2.53 µM): 0.496
relative viability (ChaGo-K-1; first compound 0.08 µM): 0.608
relative viability (ChaGo-K-1; first compound 0.253 µM): 0.442
relative viability (ChaGo-K-1; first compound 0.8 µM): 0.623
relative viability (ChaGo-K-1; first compound 2.53 µM): 0.592
relative viability (SK-MES-1; first compound 0.08 µM): 0.738
relative viability (SK-MES-1; first compound 0.253 µM): 0.594
relative viability (SK-MES-1; first compound 0.8 µM): 0.528
relative viability (SK-MES-1; first compound 2.53 µM): 0.777
relative viability (LCLC-97TM1; first compound 0.08 µM): 0.648
relative viability (LCLC-97TM1; first compound 0.8 µM): 0.646
relative viability (LCLC-97TM1; first compound 2.53 µM): 0.688
relative viability (NCI-H727; first compound 0.08 µM): 0.588
relative viability (NCI-H727; first compound 0.253 µM): 0.589
relative viability (NCI-H727; first compound 0.8 µM): 0.518
relative viability (NCI-H727; first compound 2.53 µM): 0.442
relative viability (HCC-78; first compound 0.08 µM): 0.41
relative viability (HCC-78; first compound 0.253 µM): 0.391
relative viability (HCC-78; first compound 0.8 µM): 0.366
relative viability (HCC-78; first compound 2.53 µM): 0.438
relative viability (NCI-H650; first compound 0.08 µM): 0.571
relative viability (NCI-H650; first compound 0.253 µM): 0.517
relative viability (NCI-H650; first compound 0.8 µM): 0.582
relative viability (NCI-H650; first compound 2.53 µM): 0.486
relative viability (NCI-H1437; first compound 0.08 µM): 0.896
relative viability (NCI-H1437; first compound 0.253 µM): 0.88
relative viability (NCI-H1437; first compound 0.8 µM): 0.916
relative viability (NCI-H1437; first compound 2.53 µM): 0.976
relative viability (UMC-11; first compound 0.08 µM): 0.594
relative viability (UMC-11; first compound 0.253 µM): 0.477
relative viability (UMC-11; first compound 0.8 µM): 0.591
